Patent publication US5484778A, “Phthalocyanine photosensitizers for photodynamic therapy and methods for their use” (priority 1993, dated 1996)

Assays:
viruses = conditions: New York Blood Center (Ben-Hur); cited from earlier work
RIF-1 tumors = assay: PDT of RIF-1 implanted tumors (Table 7); format: in vivo, C3H/HeN mice; conditions: 1 mg/kg in corn oil; 675 nm, 135 J/cm^2
In short: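 C3H/HeN mice each carried one RIF-1 fibrosarcoma on the back and received 1 mg/kg phthalocyanine as a corn-oil suspension. Volume was measured daily by calipers from a 50±10 mm^3 start and calculated with the hemiellipsoid model.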

L5178Y cells = assay: Induction of apoptosis (DNA fragmentation) in L5178Y-R cells (Table 6); format: cell-based, mouse; conditions: 1 μM at a fluence of 30 kJ/m^2
In short: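 Exponentially growing mouse lymphoma L5178Y-R cells loaded 18 hours with phthalocyanine at various concentrations, then irradiated with >600 nm red light (up to 30 kJ/m^2, ~74 W/m^2). DNA isolated 2 hours post-PDT, run on 1.5% agarose; value is minimum PDT dose (concentration × fluence) giving visible DNA ladder.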

[1] = test system: Chinese hamster V79-379 cells; assay: Growth delay of V79 cultures after red light (Table 1); format: cell-based
Procedure: (§1) Chinese hamster V79-379 lung fibroblasts were grown in monolayer culture in McCoy's 5A medium (Gibco Laboratories, Grand Island, N.Y.) augmented with 10% calf serum and buffered with 20 mM HEPES (pH 7.4).
(§2) The cells were treated with 1 μM AlPcCl (from Eastman Kodak, Rochester, N.Y.) or with phthalocyanine compositions I-VI (0.5-1.0 μM final concentration in the medium) for 18 hours by adding the appropriate volume of a 1.0 mM stock solution in dimethylformamide (DMF) to the culture medium. The growth medium was replaced with 4 ml Hank's balanced salt solution (HBSS), and the cells were irradiated. The light source was a 500 W tungsten-halogen lamp located approximately 29 inches below the surface of a glass exposure tray. The visible light administered to the cells was filtered to allow passage of only that portion of the visible spectrum above 600 nm (Lee Primary red filter No. 106, Vincent Lighting, Cleveland, Ohio). The fluence rate was approximately 0.074 kJ/m^2 /s at the level of the cell monolayer.
At the time of light exposure, there were approximately 1.5×10^5 cells per 25 cm^2 flask. Following irradiation, the HBSS was replaced by 10 ml of fresh complete growth medium, and the cultures were returned to the 37° C. incubator. At various times before and after irradiation, duplicate cultures were trypsinized and counted. Controls included untreated cells and cells treated with light alone or drug alone. In addition, in each experiment, the drug to be tested was compared to a standard treatment, i.e. 1 μM AlPcCl for 18 hours followed by 12 kJ/m^2 light.
The inhibition of V79 culture growth was measured during a three day period following red light irradiation (12 kJ/m^2) of phthalocyanine-pretreated cells. With each of the active compounds, as well as with AlPcCl, there was an initial decrease in cell density, as dead cells became detached from the monolayer. Thereafter, the cell number per flask increased, as living cells grew and divided. The time for the cell density to recover to the level at the time of light exposure was considered the growth delay. […] The ratio of the growth delay for the test photosensitizer and the growth delay for AlPcCl measured in the same experiment is recorded in Table 1.

[2] = test system: Chinese hamster V79-379 cells; assay: Clonogenic cell survival / photocytotoxicity in V79 cells (Table 1, FIG. 1, FIG. 2); format: cell-based; conditions: 1.0 μM, 18 h
Procedure: FIG. 1 is a graph illustrating the photodynamic efficacy of the various compositions of the present invention in comparison to AlPcCl. The phthalocyanine composition compounds of the present invention were tested for their photodynamic efficiency against Chinese hamster fibroblast V79 cells by colony formation. Monolayer cultures were treated with the indicated phthalocyanine composition for 18 hours, irradiated with various fluences of red light, and immediately trypsinized and replated at appropriate aliquots in triplicate. Colonies of at least 50 cells were counted after 7-10 days. The plating efficiency of the untreated cells was approximately 90%.
In this regard, in FIG. 2 the data of FIG. 1 were replotted as a function of the product of the amount of cell-associated phthalocyanine and the light fluence.
as §1, §2
Cells were irradiated at a density of approximately 2×10^6 per 25 cm^2 flask. Immediately after irradiation, the cell monolayer was treated with trypsin, and appropriate aliquots were plated in triplicate to give 100 to 200 colonies in each 10-cm Petri dish. Cell survival was determined by the ability of the cells to form colonies containing at least 50 cells. The response of cells treated with 1 μM AlPcCl and light was compared in each experiment.
Photocytotoxicity of the phthalocyanines compounds I to VI was also assessed by clonogenic assay (Table 1, FIG. 1). In all experiments, 1 μM AlPcCl was included for comparison purposes. From the survival curves (FIG. 1), the fluence reducing the cell survival to 10% (F10) was obtained. The ratio of the F10 for AlPcCl and the F10 for the test compound is recorded in Table 1.
In order to take differences in cellular uptake into consideration in the assessment of the relative efficiency of these phthalocyanines as photosensitizers of V79 cells, the survival data were replotted against the product of intracellular phthalocyanine concentration and light fluence (FIG. 2). From these curves, the product of intracellular concentration and light fluence reducing survival to 10% (CF10) was obtained, and comparisons of the values for AlPcCl and the test compounds are recorded in Table 1.

[3] = test system: Chinese hamster fibroblasts, i.e. V79 cells
Description: Initially, applicants examined the photocytotoxicity of twenty-one phthalocyanines taken from a collection in the applicants' laboratories to Chinese hamster fibroblasts, i.e. V79 cells.

Compound | purging viruses from blood and/or blood components (viruses) | Doubling Time of Initial Tumor Volume after PDT (RIF-1 tumors) | induction of apoptosis (L5178Y cells) | Growth Delay, efficiency relative to 1 μM AlPcCl ([1]; 1.0 μM, 18 h, 12 kJ/m^2 red light) | inhibition of V79 culture growth (in words) ([1]; red light 12 kJ/m^2, three day period) | CF10 (AlPcCl)/CF10 (Pc) ([2]; CF10 = intracellular concentration x fluence reducing survival to 10%) | F10 (AlPcCl)/F10 (Pc) ([2]; F10 = fluence reducing survival to 10%) | photocytotoxicity (in words) [3] | uptake by V79 cells (in words) [3]
C[N+](C)(C)CCC[Si](C)(C)O[Si]1(O)n2c3c4ccccc4c2N=C2N=C(N=c4c5ccccc5c(n41)=NC1=NC(=N3)c3ccccc31)c1ccccc12.[I-] (stereo not drawn) [Compound V, HOSiPcOSi(CH3)2 (CH2)3 N(CH3)3^+ I^-] | effective at purging viruses from blood and/or blood components | 6 days | did not induce apoptosis | 0 | less inhibition of culture growth | 3.0 | 0.59 |  | 
CCN(CC)CC(O)COCCC[Si](C)(C)O[Si]1(O)n2c3c4ccccc4c2N=C2N=C(N=c4c5ccccc5c(n41)=NC1=NC(=N3)c3ccccc31)c1ccccc12 (stereo not drawn) [HOSiPcOSi(CH3)2 (CH2)3 OCH2 --CHOHCH2 N(C2 H5) 2] |  |  |  |  |  |  |  | excellent photocytotoxicity | taken up efficiently by the Chinese hamster fibroblast V79 cells
